According to ChEMBL document CHEMBL1144455, “A small molecule-kinase interaction map for clinical kinase inhibitors” (Nat Biotechnol, 2005):

Experiments:
[1] = biological target: Serine/threonine-protein kinase Nek6 (Homo sapiens, UniProt Q9HC98)
[2] = biological target: Calcium/calmodulin-dependent protein kinase type 1 (Homo sapiens, UniProt Q14012)
[3] = biological target: T1, Ephrin type-B receptor 4 (Homo sapiens, UniProt P54760)
T1 sequence (P54760 whole entry): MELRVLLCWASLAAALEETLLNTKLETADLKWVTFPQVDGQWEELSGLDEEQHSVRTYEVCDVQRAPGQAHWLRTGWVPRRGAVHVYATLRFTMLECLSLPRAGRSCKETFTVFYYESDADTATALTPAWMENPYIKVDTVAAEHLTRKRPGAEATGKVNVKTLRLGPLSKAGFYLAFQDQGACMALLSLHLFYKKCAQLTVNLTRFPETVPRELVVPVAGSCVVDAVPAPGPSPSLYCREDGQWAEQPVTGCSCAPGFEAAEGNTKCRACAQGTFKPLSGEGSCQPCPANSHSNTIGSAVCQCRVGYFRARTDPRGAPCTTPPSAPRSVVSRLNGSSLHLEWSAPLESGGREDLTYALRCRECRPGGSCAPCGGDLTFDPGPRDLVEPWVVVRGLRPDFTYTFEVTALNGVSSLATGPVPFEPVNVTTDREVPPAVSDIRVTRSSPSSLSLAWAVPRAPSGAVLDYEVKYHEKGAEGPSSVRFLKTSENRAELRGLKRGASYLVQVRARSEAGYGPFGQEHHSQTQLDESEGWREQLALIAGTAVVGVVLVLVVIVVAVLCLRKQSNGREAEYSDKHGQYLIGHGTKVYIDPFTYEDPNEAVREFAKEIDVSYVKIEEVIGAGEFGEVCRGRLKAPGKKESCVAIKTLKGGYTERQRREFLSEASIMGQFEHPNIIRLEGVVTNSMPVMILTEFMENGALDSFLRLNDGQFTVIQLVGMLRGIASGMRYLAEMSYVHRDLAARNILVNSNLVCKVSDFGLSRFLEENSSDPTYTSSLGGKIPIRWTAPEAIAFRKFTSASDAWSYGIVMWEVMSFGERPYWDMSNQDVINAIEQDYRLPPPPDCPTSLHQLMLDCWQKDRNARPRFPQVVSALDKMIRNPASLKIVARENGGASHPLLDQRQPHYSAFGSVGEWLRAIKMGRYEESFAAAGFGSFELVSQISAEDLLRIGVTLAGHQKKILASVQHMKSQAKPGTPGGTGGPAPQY

[4] = biological target: Serine/threonine-protein kinase PAK 6 (Homo sapiens, UniProt Q9NQU5)
[5] = biological target: Calcium/calmodulin-dependent protein kinase type II subunit alpha (Homo sapiens, UniProt Q9UQM7)
[6] = biological target: Ephrin type-A receptor 2 (Homo sapiens, UniProt P29317)
[7] = biological target: Phosphorylase b kinase gamma catalytic chain, skeletal muscle/heart isoform (Homo sapiens, UniProt Q16816)
[8] = biological target: BMP-2-inducible protein kinase (Homo sapiens, UniProt Q9NSY1)
[9] = biological target: Insulin receptor (Homo sapiens, UniProt P06213)
[10] = biological target: Ribosomal protein S6 kinase alpha-3 (Homo sapiens, UniProt P51812)
[11] = biological target: Death-associated protein kinase 3 (Homo sapiens, UniProt O43293)
[12] = biological target: Tyrosine-protein kinase BTK (Homo sapiens, UniProt Q06187)
[13] = biological target: LIM domain kinase 1 (Homo sapiens, UniProt P53667)
[14] = biological target: Mitogen-activated protein kinase 11 (Homo sapiens, UniProt Q15759)
[15] = biological target: Focal adhesion kinase 1 (Homo sapiens, UniProt Q05397)
[16] = biological target: T2, Serine/threonine-protein kinase 17B (Homo sapiens, UniProt O94768)
T2 sequence (O94768 whole entry): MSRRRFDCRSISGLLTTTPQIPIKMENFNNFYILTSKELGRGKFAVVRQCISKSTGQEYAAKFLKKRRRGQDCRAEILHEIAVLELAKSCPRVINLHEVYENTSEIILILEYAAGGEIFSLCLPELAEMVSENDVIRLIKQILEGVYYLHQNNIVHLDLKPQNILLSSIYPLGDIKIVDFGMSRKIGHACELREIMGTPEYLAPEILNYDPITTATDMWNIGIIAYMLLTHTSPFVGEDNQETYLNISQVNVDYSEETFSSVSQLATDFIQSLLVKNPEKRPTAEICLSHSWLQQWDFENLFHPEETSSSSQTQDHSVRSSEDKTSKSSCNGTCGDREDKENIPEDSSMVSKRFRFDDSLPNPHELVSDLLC

[17] = biological target: Dual specificity protein kinase CLK3 (Homo sapiens, UniProt P49761)

Measured: Kd

Chain of Calcium/calmodulin-dependent protein kinase type II subunit alpha (Q9UQM7 whole entry): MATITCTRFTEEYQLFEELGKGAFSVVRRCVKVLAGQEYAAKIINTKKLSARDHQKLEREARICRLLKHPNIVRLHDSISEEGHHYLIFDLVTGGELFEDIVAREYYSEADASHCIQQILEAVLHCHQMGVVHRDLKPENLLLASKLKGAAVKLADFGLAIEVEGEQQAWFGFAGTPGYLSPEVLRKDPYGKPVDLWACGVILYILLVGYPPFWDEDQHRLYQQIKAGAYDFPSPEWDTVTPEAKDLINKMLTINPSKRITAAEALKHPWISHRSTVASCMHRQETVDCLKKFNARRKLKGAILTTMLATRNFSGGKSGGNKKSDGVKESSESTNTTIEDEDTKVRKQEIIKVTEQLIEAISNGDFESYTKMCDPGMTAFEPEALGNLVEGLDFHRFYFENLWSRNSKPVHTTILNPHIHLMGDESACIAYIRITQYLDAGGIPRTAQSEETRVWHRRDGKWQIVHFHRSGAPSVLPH
Chain of Focal adhesion kinase 1 (Q05397 whole entry): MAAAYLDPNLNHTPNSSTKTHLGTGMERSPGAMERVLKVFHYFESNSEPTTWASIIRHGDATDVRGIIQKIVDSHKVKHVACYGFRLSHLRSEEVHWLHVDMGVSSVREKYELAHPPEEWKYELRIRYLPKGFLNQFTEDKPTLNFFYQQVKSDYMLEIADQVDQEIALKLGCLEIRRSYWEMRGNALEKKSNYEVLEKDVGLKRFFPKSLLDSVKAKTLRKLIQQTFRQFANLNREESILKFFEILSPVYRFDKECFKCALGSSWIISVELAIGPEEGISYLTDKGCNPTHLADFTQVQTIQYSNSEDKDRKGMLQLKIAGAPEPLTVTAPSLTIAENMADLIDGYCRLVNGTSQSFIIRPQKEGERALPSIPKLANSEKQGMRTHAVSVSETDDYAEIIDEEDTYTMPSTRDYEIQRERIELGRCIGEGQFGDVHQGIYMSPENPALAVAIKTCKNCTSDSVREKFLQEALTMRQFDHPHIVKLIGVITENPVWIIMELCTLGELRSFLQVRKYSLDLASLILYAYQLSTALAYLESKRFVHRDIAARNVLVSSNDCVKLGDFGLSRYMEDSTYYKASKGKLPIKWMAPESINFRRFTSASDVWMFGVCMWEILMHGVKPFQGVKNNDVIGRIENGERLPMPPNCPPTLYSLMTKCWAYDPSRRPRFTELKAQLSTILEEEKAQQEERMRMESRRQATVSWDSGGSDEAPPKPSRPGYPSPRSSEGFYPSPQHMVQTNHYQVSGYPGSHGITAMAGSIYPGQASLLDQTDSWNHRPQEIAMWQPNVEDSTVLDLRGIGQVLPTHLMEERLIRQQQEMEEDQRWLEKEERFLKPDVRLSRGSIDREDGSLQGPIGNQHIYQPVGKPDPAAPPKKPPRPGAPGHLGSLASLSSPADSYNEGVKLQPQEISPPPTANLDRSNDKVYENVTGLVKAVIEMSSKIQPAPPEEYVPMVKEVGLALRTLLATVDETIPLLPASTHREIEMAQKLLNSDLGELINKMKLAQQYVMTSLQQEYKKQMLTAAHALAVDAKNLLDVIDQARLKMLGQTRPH
Chain of Tyrosine-protein kinase BTK (Q06187 whole entry, the tested form may be a part): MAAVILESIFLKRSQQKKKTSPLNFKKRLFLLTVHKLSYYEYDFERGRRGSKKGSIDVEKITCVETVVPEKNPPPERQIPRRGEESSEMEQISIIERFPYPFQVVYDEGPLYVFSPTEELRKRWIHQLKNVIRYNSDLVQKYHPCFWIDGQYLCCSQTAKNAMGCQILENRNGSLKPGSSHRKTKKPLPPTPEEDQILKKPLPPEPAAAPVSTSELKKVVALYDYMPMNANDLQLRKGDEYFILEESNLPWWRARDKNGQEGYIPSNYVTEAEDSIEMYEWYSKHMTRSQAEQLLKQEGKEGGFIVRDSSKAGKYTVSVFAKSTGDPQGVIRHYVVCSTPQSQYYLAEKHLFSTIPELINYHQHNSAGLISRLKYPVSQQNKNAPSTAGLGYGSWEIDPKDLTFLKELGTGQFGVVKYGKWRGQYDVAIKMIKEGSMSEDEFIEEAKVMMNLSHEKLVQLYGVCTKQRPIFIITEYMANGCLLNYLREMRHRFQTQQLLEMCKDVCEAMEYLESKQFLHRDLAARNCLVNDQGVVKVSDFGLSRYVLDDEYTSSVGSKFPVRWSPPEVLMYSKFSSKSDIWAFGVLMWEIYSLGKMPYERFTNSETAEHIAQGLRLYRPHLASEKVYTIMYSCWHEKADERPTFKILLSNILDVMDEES
Chain of LIM domain kinase 1 (P53667 whole entry, the tested form may be a part): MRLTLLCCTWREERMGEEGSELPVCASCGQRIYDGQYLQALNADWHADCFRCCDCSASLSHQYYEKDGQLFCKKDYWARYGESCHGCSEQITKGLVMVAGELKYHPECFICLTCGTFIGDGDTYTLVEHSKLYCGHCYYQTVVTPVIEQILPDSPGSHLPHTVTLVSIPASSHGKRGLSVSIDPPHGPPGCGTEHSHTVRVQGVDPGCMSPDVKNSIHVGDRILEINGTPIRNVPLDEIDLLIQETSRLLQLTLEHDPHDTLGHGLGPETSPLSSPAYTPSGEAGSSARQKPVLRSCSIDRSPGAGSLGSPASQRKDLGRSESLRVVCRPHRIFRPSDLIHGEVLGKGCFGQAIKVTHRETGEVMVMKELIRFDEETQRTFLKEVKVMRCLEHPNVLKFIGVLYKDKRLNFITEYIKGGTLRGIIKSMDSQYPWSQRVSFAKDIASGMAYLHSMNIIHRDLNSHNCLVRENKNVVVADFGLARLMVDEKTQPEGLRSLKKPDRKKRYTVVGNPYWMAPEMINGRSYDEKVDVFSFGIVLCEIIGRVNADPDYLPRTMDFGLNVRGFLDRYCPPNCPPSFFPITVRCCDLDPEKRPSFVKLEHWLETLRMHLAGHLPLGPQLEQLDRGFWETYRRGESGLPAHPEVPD
Chain of BMP-2-inducible protein kinase (Q9NSY1 whole entry): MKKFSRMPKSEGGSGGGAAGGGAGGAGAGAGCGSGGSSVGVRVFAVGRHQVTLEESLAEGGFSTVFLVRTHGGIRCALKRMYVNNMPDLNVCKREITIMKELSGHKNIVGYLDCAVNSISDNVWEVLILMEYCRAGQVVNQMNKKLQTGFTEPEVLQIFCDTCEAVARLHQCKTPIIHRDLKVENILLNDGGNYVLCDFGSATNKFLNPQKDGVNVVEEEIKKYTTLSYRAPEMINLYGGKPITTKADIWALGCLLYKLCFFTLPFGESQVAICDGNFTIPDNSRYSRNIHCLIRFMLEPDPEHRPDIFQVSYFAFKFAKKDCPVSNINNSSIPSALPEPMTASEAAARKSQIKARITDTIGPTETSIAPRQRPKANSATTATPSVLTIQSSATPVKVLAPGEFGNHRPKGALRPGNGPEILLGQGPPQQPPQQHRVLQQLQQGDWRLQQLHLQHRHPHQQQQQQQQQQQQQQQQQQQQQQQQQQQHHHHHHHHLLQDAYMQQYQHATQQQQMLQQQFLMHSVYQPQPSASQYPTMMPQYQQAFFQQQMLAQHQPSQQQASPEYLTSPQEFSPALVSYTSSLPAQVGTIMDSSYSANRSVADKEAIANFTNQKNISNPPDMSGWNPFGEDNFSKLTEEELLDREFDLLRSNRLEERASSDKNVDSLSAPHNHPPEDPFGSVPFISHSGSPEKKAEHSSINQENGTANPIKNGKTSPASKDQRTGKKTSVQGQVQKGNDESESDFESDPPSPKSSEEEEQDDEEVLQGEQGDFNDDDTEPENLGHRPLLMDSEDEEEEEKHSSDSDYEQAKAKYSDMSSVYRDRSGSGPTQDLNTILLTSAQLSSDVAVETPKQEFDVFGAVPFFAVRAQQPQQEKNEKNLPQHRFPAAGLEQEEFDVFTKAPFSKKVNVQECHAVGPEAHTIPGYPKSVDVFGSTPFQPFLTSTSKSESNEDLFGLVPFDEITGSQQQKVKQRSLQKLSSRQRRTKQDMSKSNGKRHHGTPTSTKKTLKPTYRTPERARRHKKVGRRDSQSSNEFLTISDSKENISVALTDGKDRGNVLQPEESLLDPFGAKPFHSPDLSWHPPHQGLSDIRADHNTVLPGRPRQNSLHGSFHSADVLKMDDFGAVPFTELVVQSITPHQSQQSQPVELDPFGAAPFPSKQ
Chain of Serine/threonine-protein kinase Nek6 (Q9HC98 whole entry): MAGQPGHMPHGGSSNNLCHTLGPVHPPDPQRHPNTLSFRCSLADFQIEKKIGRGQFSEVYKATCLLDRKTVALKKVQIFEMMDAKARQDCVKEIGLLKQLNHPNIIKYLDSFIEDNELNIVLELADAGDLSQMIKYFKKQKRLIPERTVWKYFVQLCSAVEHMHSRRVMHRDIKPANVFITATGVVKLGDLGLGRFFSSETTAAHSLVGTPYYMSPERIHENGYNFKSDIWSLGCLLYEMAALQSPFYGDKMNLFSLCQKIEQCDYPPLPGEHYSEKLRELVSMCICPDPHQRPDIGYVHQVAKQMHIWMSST
Chain of Death-associated protein kinase 3 (O43293 whole entry): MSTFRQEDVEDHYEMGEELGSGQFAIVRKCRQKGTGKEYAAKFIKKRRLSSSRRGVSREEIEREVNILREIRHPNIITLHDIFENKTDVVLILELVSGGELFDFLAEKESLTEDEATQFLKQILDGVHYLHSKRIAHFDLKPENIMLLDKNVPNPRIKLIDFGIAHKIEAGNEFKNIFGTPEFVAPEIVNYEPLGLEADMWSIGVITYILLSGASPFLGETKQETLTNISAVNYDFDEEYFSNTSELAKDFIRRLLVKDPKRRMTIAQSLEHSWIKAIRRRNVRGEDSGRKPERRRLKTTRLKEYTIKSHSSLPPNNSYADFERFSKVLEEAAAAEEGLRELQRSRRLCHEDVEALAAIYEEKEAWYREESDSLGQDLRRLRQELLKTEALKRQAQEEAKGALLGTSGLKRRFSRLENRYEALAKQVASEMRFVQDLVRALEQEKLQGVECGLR

CC[C@H](CO)Nc1nc(NCc2ccccc2)c2ncn(C(C)C)c2n1 [SELICICLIB]
Not Active: [1] | [2] | [3] | [4] | [5] | [6] | [7] | [8] | [9] | [10] | [11] | [12] | [13] | [14] | [15] | [16] | [17]
